Measurements published in PubChem BioAssay (NCI).
“And” between values parts separate entries of the source, which are not always exact repeats. Identical values can stand only once.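 Five concentrations, 48 hours, 96-well plates. GI50: concentration for 50% inhibition of growth. The concentration for full growth arrest is given as TGI.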

Key:
Assay in all cases: DTP human tumour cell line panel, 48 h
[1] = test system: UACC-62 melanoma
[2] = test system: HOP-62 NSCLC
[3] = test system: SR leukemia
[4] = test system: HT29 colon
[5] = test system: A498 renal
[6] = test system: COLO 205 colon
[7] = test system: HS 578T breast
[8] = test system: HCC-2998 colon
[9] = test system: TK-10 renal
[10] = test system: M14 melanoma

Row | Structure (SMILES) | GI50 [1] [nM] | TGI [1] [µM] | GI50 [2] | TGI [2] [µM] | GI50 [3] | TGI [3] | GI50 [4] | TGI [4] | GI50 [5] [nM] | TGI [5] [µM] | GI50 [6] | TGI [6] | GI50 [7] | TGI [7] | GI50 [8] | TGI [8] | GI50 [9] | TGI [9] | GI50 [10] | TGI [10]
1 | CCCCCCCCCCCCOC1C(CNC(=O)C2OC3OC(C)(C)OC3C2NC(=O)Nc2ccc(CC(=O)OC)cc2)OC2OC(C)(C)OC21 (stereo unspecified) | > 100000 | > 100 | > 50200 nM | > 100 | > 100000 nM | > 100 µM | > 100000 nM | > 100 µM | > 100000 | > 100 | > 72500 nM | > 100 µM | > 100 µM | > 100 µM | > 100000 nM | > 100 µM | > 100 µM | > 100 µM | 22700 nM | > 100 µM
2 | Cc1cccc(N(C)C(=O)[C@@H]2[C@H](O)CCN2c2nc(C)cc(C(F)(F)F)c2C#N)c1 | 21900 | 74.5 | 25800 nM | > 100 | 5240 nM | 28.6 µM | 15600 nM | 49.1 µM | 21900 | 69.8 | 17300 nM | 34 µM | 25.7 µM | > 100 µM | 22700 nM | 88.1 µM | 28.5 µM | > 100 µM | 16300 nM | 34.5 µM
3 | O=c1c2c(=NCCN3CCCC3)cc3c(=O)n(CCCN4CCOCC4)c(=O)c4c(-c5ccc(CN6CCCC6)cc5)cc(c(O)n1CCCN1CCOCC1)c2c4-3 | 80 | 0.239 | 25.5 nM | 0.221 | < 10.8 nM | 11.1 µM | < 11.5 nM | 0.413 µM | 38.1 | 0.155 | 64.1 nM | 0.327 µM | 0.132 µM | 0.57 µM | 55.6 nM | 0.284 µM | 0.0329 µM | 0.84 µM | 136 nM | 0.641 µM
4 | C/C(=N\NC(=S)N1CCCCC1)c1ccccn1 | 106 | 3.93 | < 16 nM | 3.54 | < 15.7 nM | 10.7 µM | < 10 nM | 4.06 µM | 228 | 2.32 | < 10 nM | 0.041 µM | 0.142 µM |  | 243 nM | 6.93 µM | 0.472 µM | 4.14 µM | < 14.8 nM | 2.23 µM
5 | C=C1CC[C@@H]2[C@](C)(COC(C)=O)[C@H](OC(C)=O)CC[C@@]2(C)[C@@H]1CC(Nc1ccc(S(=O)(=O)NC(C)=O)cc1)C1=CCOC1=O (stereo partly specified) | 2590 | 10.8 | 10800 nM | 21.1 | 991 nM | 18.1 µM | 1570 nM | 3.55 µM | 10300 | 20.1 | 1810 nM | 4.82 µM | 8.45 µM | 38.8 µM | 7510 nM | 17.3 µM | 8.01 µM | 16.9 µM | 2860 nM | 11.9 µM
6 | CCN(CC)c1ccc(/C=N/NC(=O)CSc2nc3ccccc3c(=O)n2CCc2ccc(S(N)(=O)=O)cc2)c(O)c1 | 1730 | 6.37 | 1860 nM | > 100 | 445 nM | > 100 µM | 8930 nM | > 100 µM | > 100000 | > 100 | 3220 nM | > 100 µM | 3.02 µM | > 100 µM | 2490 nM | > 100 µM | 5.71 µM | > 100 µM | 754 nM | 7.2 µM
7 | COc1ccc2c(c1OC)C[C@@H]1c3c(cc4c(c3-2)OCO4)CCN1C |  | 43.8 |  | > 100 |  | 54.3 µM |  | 41.3 µM |  | 63.5 |  | 40.3 µM |  | > 100 µM |  | 40.3 µM |  | 74.6 µM |  | 84.8 µM
8 | CC(C)(CN1CCCCC1)C(=O)/C=C/c1ccc(/C=C/C(=O)C(C)(C)CN2CCCCC2)cc1 |  | 2.35 |  | 2.19 |  | 0.646 µM |  | 0.514 µM |  | 3.08 |  | 0.418 µM |  | 3.2 µM |  | 1.07 µM |  | 2.31 µM |  | 3.26 µM
9 | CCN1C/C(=C\c2cc(OC)c(OC)cc2OC)C(=O)/C(=C/c2cc(OC)c(OC)cc2OC)C1 | 2130 | 4.28 | 3450 nM | 10.4 | 3160 nM | 8.99 µM | 2630 nM | 5.69 µM | 2560 | 7.81 | 2310 nM | 5.43 µM | 3.34 µM | 79.5 µM | 1740 nM | 3.33 µM | 3.88 µM | 11.3 µM | 2300 nM | 5.37 µM
10 | CCN(Cc1ccc(C)cc1)c1ccc(CO)c(Cl)c1 | 93.3 | 0.684 | 779 nM | 16.4 | 17600 nM | 46.8 µM | 2490 nM | 14.7 µM | 39.8 | 0.178 | 996 nM | 4.05 µM | 12.5 µM | 38.2 µM | 10400 nM | 22.5 µM | 0.0795 µM | 0.309 µM | 10500 nM | 23.7 µM
11 | CCN1C(=S)N(c2ccccc2)C2NC(=S)N(/N=C/C=C/c3ccccc3OC)C21 (stereo unspecified) | 421 | > 100 | 487 nM | > 100 | 300 nM |  | 329 nM |  | 235 | 0.833 | 435 nM | 2.16 µM | 0.359 µM | > 100 µM | 538 nM | > 100 µM |  | > 100 µM | 304 nM | > 100 µM
12 | O=C(Oc1cccc2cccnc12)c1cc2c(cc1Cl)SC(N(c1ccc(F)cc1)S(=O)(=O)c1ccc(Br)s1)=NS2(=O)=O | 32600 | > 100 | 50800 nM | > 100 | 46200 nM | > 100 µM | 41000 nM | > 100 µM | 34900 | > 100 | 18500 nM | 50.8 µM | 38.9 µM | > 100 µM | 43500 nM | > 100 µM | 38.1 µM | > 100 µM | 23900 nM | > 100 µM
13 | CC(=O)c1ccc2c(c1)c1cc(C(C)=O)ccc1n2CCNC(C)C | 250 | 0.78 | 717 nM | 4.63 | 142 nM | 11.4 µM | 342 nM | 2.18 µM | 398 | 1.89 | 331 nM | 1.6 µM | 0.828 µM | 4.77 µM | 635 nM | 4.39 µM | 0.531 µM | 5.02 µM | 358 nM | 1.72 µM
14 | O=c1[nH]c2ccccc2c2ccccc12 | > 100000 | > 100 | > 100000 nM | > 100 | 77300 nM | > 100 µM | > 100000 nM | > 100 µM | 44700 | > 100 | > 100000 nM | > 100 µM | > 100 µM | > 100 µM | > 100000 nM | > 100 µM | > 100 µM | > 100 µM | > 100000 nM | > 100 µM
15 | O=Nc1ccc(O)c(=O)cc1 | 2010 | 5.68 | 7450 nM | 23.2 | 954 nM | 9.19 µM | 2450 nM | 10.7 µM | 4890 | 28.6 | 1080 nM | 3.45 µM | 5.57 µM | > 44.4 µM | 3350 nM | 13.5 µM | 1.82 µM | 9.18 µM | 2520 nM | 7.01 µM
16 | O=C(Cc1ccc(/C=C/C(=O)c2ncc[nH]2)cc1)Nc1ccc(F)cc1 | 5920 | 22.6 | 2640 nM | 12.7 | 1110 nM | 6.41 µM | 1150 nM | 4.45 µM | 8920 | 22.9 | 4540 nM | 10.8 µM | 23.3 µM | > 33.3 µM | 5430 nM | 10.9 µM | 7.89 µM | 18.4 µM | 5980 nM | 17.6 µM
17 | O=S(=O)(NCCCNc1nccc(-c2c(-c3ccc(O)cc3)nc3sccn23)n1)c1ccc(F)cc1 | 24.5 | 1.33 | 3670 nM | 14.9 | 2070 nM | > 100 µM | 1520 nM | 17.2 µM | 1550 | 5.16 | 52.7 nM | 2.19 µM | 2.8 µM | 6.99 µM | 3370 nM | 6.93 µM | 4.48 µM | 32.2 µM | 64 nM | 2.8 µM
18 | CN(c1ncccc1CNc1nc(Nc2ccc3c(c2)CC(=O)N3)ncc1C(F)(F)F)S(C)(=O)=O | 1400 | 3.62 | 2580 nM and 2590 nM | > 30.1 | 606 nM and 1540 nM | 4.91 µM and 5.26 µM | 1750 nM and 2330 nM | 4.79 µM and 8.54 µM | 2810 | 7.14 | 601 nM and 1110 nM | 2.08 µM and 3.03 µM | 1.73 µM and 2.47 µM | 7.9 µM and > 10 µM | 1410 nM and 1800 nM | 7.28 µM and 9.71 µM | 1.87 µM and 1.75 µM | 7.82 µM and > 10 µM | 1870 nM and 2910 nM | 5.49 µM and > 10 µM
19 | O=C1CSCc2sccc21 |  | > 100 |  | > 100 |  | > 100 µM |  | > 100 µM |  | > 100 |  | > 100 µM |  | > 100 µM |  | > 100 µM |  | > 100 µM |  | > 100 µM
